Results taken from patent US8383637B2, “2-amino-quinazoline derivatives useful as inhibitors of β-secretase (BACE)” (Jansssen Pharmaceutica N.V., priority 2004, dated 2013).
Where two headings read alike, the source gives them in different places.

How the values were obtained:
β-secretase(BACE) [1] = target: T1, β-secretase(BACE) (Homo sapiens, UniProt P56817); assay: BACE Assay-2 (FS1 substrate, IC50 and Ki); type: biochemical; settings: procedure of Example 159, FS1 substrate; read-out: Ki μM (159)
T1 construct: purchased Panvera
Protocol: The FS1-substrate stock solution was prepared in DMSO as a 10 mg/mL solution. The FS1-substrate working solution was prepared by diluting the 10 mg/mL stock solution with substrate assay buffer to a final concentration of 300 μg/mL. The β-secretase (BACE) working solution was prepared by diluting a 0.83 mg/mL BACE stock solution with enzyme assay buffer to a final concentration of 4 μg/mL.
Test compounds were dissolved in DMSO at 10 mM.
The procedure for this assay was as follows: 15 μL of BACE working solution was pipetted into each well of a 96-well plate. To each well was then pipetted 2 μL of test compound at the selected concentration. Test compound and BACE were then mixed with a pipettor and incubated for 20 min at room temperature. To each well was then added 10 μL of the FS1 substrate working solution.
The procedure for the positive control was as follows: 15 μL of BACE working solution was pipetted into each well to be used as a positive control. To each well was then pipetted 2 μL of vehicle. Vehicle and BACE were then mixed with a pipettor and incubated for 20 min at room temperature. To each well was then added 10 μL of the FS1 substrate working solution.
For test compounds, measured at multiple concentrations, the measured T0 and T60 values were used to calculate an IC50 value using Graphpad Software (or PIR). For test compounds, Ki inhibition was determined as follows: For each compound concentration and positive control, rate of cleavage of substrate (Vi, where i=compound concentration in μM) was determined as Δ Fluorescence/Δ time (min). Cleavage rates (Vi) were plotted as a function of inhibitor concentration in μM [I]. The Ki was then determined by fitting the following equation to the graph of [I] vs Vi Y=aVmax/(50+24*(1+X/Ki)),

β-secretase(BACE) [2] = target: T1, β-secretase(BACE); assay: BACE FS1% Inhibition Assay; type: biochemical; settings: FS1 substrate; for inhibition at 0.3 µM: 0.3 μM test compound; for inhibition at 1 µM: 1 μM test compound; for inhibition at 3 µM: 3 μM test compound
Outline: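 Percent inhibition at each tested concentration, referenced to enzyme-free blank and vehicle-only positive control. Reaction: compound and BACE (4 μg/mL working stock) mixed 20 min at room temperature before FS1 substrate (300 μg/mL working stock), then 1 h at room temperature.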

[3] = read-out: % Inhibition (FS) 0.3 μM
[4] = read-out: % Inhibition (FS) 1 μM
[5] = read-out: % Inhibition (FS) 3 μM

T1 sequence (P56817 46-501): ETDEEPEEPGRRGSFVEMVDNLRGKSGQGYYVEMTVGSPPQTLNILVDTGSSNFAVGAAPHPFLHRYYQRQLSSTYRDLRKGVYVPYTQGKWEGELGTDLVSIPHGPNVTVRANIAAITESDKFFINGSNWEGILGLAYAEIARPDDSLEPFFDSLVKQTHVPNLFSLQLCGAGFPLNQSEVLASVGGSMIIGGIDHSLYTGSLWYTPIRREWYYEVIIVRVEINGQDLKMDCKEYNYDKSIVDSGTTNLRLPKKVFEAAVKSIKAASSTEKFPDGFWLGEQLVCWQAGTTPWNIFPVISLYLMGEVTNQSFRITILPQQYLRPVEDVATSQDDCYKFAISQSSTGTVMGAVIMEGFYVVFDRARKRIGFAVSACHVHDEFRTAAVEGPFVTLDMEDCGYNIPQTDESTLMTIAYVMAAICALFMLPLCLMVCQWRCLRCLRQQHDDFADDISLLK

| Structure (SMILES) | Ki (β-secretase(BACE) [1]) [µM] | inhibition at 0.3 µM (β-secretase(BACE) [2]; [3]) [%] | inhibition at 1 µM (β-secretase(BACE) [2]; [4]) [%] | inhibition at 3 µM (β-secretase(BACE) [2]; [5]) [%] | inhibition at 0.3 µM (β-secretase(BACE) [2]; read-out: % Inhibition (FS)) [%] | inhibition at 1 µM (β-secretase(BACE) [2]; read-out: % Inhibition (FS)) [%] | inhibition at 3 µM (β-secretase(BACE) [2]; read-out: % Inhibition (FS)) [%] | inhibition at 10 µM (β-secretase(BACE) [2]; 10 μM test compound, read-out: % Inhibition (FS) 10 μM) [%] |
| --- | --- | --- | --- | --- | --- | --- | --- | --- |
| CN(C(=O)CC[C@@H](C(=O)N(C)C1CCCCC1)N1Cc2cc(Oc3ccccc3)ccc2N=C1N)C1CCCCC1 [Compound 634, (S)-enantiomer of 2-(2-Amino-6-phenoxy-4H-quinazolin-3-yl)-pentanedioic acid bis-(cyclohexyl-methyl-amide)] | 0.054 | 46 | 88 | 114 |  |  |  |  |
| NC1=Nc2ccc(-c3c(F)cccc3F)cc2CN1CCNC(=O)C1CCCCC1 [Compound 629] | 0.13 | < 30 | 72 | 102 |  |  |  |  |
| CC(C)[C@H](CNC(=O)C1CCCCC1)N1Cc2cc(Oc3ccccc3)ccc2N=C1N [Compound 561] | 0.016 | 114 | 118 | 125 |  |  |  |  |
| Cc1ccccc1-c1ccc2c(c1)CN(CCNC(=O)C1CCOCC1)C(N)=N2 [Compound 693] | 0.17 |  |  |  | 47 | 83 | 109 |  |
| CN(C(=O)c1ccnc(CN2Cc3cc(Oc4ccccc4)ccc3N=C2N)c1)C1CCCCC1 [Compound 508, 2-(2-Amino-6-phenoxy-4H-quinazolin-3-ylmethyl)-N-cyclohexyl-N-methyl-isonicotinamide] | 0.15 | 31 | 74 | 113 |  |  |  |  |
| CCCCCC(CCC(=O)N(C)C1CCCCC1)N1Cc2cc(Oc3ccccc3)ccc2N=C1N (stereo not shown) [Compound 148] | 0.25 | 35 | 62 | 114 |  |  |  |  |
| CC(C)[C@@H](CCC(=O)N(C)C1CCCCC1)N1Cc2cc(Oc3ccccc3)ccc2N=C1N [Compound 444] | 0.58 | < 30 | < 30 | 30 |  |  |  |  |
| CONC1=Nc2ccc(-c3ccccc3OC)cc2CN1Cc1cccc(C(=O)N(C)C2CCCCC2)c1 [Compound 605, N-Cyclohexyl-3-[2-methoxyamino-6-(2-methoxy-phenyl)-4H-quinazolin-3-ylmethyl]-N-methyl-benzamide] | 0.54 | 47 | 72 | 111 |  |  |  |  |
| CN(C(=O)c1cccc(C(c2ccccc2)N2Cc3cc(Oc4ccccc4)ccc3N=C2N)c1)C1CCCCC1 (stereo not shown) [Compound 136] | 0.5 |  |  | 85 |  |  |  | 133 |
| CC(C)CC(=O)NC[C@@H](C(C)C)N1Cc2cc(Oc3ccccc3)ccc2N=C1N [Compound 563] | 0.02 | 101 | 119 | 127 |  |  |  |  |
| NC1=Nc2ccc(-c3ccccc3)cc2CN1CCNC(=O)C1CCCCC1 [Compound 515] | 0.13 | 41 | 66 | 110 |  |  |  |  |
| CC(C)CCC(=O)NCCN1Cc2cc(-c3ccccc3F)ccc2N=C1N [Compound 647] | 0.033 | 79 | 100 | 113 |  |  |  |  |
| CC(C)N(C(=O)c1cccc(CN2Cc3cc(Oc4ccccc4)ccc3N=C2N)c1)C1CCCCC1 [Compound 192] | 0.22 | 38 | 92 | 110 |  |  |  |  |
| CC(C)CCC(=O)NCCN1Cc2cc(-c3ccccc3Cl)ccc2N=C1N [Compound 654] | 0.046 | 83 | 102 | 111 |  |  |  |  |
| CN(C(=O)c1cccc(CN2Cc3cc(-c4ccccc4C(N)=O)ccc3N=C2N)c1)C1CCCCC1 [Compound 173] | 0.47 | < 30 | 53 | 76 |  |  |  |  |
| NC1=Nc2ccc(-c3ccccc3Cl)cc2CN1CCNC(=O)C1CCCCC1 [Compound 536] | 0.086 | 61 | 83 | 118 |  |  |  |  |
| COc1ccccc1-c1ccc2c(c1)CN([C@@H](CCC(=O)N(C)CCc1ccccc1)C1CCCCC1)C(N)=N2 [Compound 721, 4-[2-Amino-6-(2-methoxy-phenyl)-4H-quinazolin-3-yl]-4-(S)-cyclohexyl-N-methyl-N-phenethyl-butyramide] | 0.22 |  |  |  | 60 | 66 | 127 |  |
| NC1=Nc2ccc(-c3ccccc3O)cc2CN1CCNC(=O)C1CCCCC1 [Compound 538] | 0.44 | < 30 | 53 | 100 |  |  |  |  |
| CN(C(=O)c1cccc(CN2Cc3cc(-c4csc5ccccc45)ccc3N=C2N)c1)C1CCCCC1 [Compound 265] | 1.1 | < 30 | 55 | 92 |  |  |  |  |

Next, values leading:

| Ki (β-secretase(BACE) [1]) [µM] | inhibition at 0.3 µM (β-secretase(BACE) [2]; [3]) [%] | inhibition at 1 µM (β-secretase(BACE) [2]; [4]) [%] | inhibition at 3 µM (β-secretase(BACE) [2]; [5]) [%] | inhibition at 0.3 µM (β-secretase(BACE) [2]; read-out: % Inhibition (FS)) [%] | inhibition at 1 µM (β-secretase(BACE) [2]; read-out: % Inhibition (FS)) [%] | inhibition at 3 µM (β-secretase(BACE) [2]; read-out: % Inhibition (FS)) [%] | inhibition at 10 µM (β-secretase(BACE) [2]; 10 μM test compound, read-out: % Inhibition (FS) 10 μM) [%] | Structure (SMILES) |
| --- | --- | --- | --- | --- | --- | --- | --- | --- |
| 0.061 |  |  |  | 87 | 110 | 116 |  | CN(C(=O)CC[C@@H](C1CCCCC1)N1Cc2cc(Oc3ccccc3)ccc2N=C1N)[C@H]1CC[C@@H](C(N)=O)CC1 [Compound 764, 4-{[4-(2-Amino-6-phenoxy-4H-quinazolin-3-yl)-4S-cyclohexyl-butyryl]-methyl-amino}-S,R-cyclohexanecarboxylic acid amide] |
| 0.175 |  |  |  | 51 | 91 | 112 |  | COC(=O)[C@H]1CC[C@@H](N(C)C(=O)CC[C@@H](C2CCCCC2)N2Cc3cc(Oc4ccccc4)ccc3N=C2N)CC1 [Compound 761] |
| 0.013 |  |  |  | 122 | 120 | 126 |  | NC1=Nc2ccc(Oc3ccccc3)cc2CN1[C@@H](CCC(=O)N(CC(=O)O)C1CCCCC1)C1CCCCC1 [Compound 768, {[4-(2-Amino-6-phenoxy-4H-quinazolin-3-yl)-4S-cyclohexyl-butyryl]-cyclohexyl-amino}-acetic acid] |
| 0.45 |  |  |  | 33 | 74 | 126 |  | CN(CCC#N)C(=O)CC[C@@H](C1CCCCC1)N1Cc2cc(-c3ccccc3F)ccc2N=C1N [Compound 725] |
| 0.173 |  |  |  | 46 | 79 | 105 |  | NC1=Nc2ccc(Oc3ccccc3)cc2CN1[C@@H](CCC(=O)N[C@@H](CO)C(=O)O)C1CCOCC1 [Compound 771] |
| 0.054 |  |  |  | 93 | 109 | 114 |  | CN(C(=O)CC[C@@H](C1CCC2(CC1)OCCO2)N1Cc2cc(Oc3ccccc3)ccc2N=C1N)C1CCCCC1 [Compound 730, S-enantiomer of 4-(2-Amino-6-phenoxy-4H-quinazolin-3-yl)-N-cyclohexyl-4-(1,4-dioxa-spiro[4.5]dec-8-yl)-N-methyl-butyramide] |
| 0.005 |  |  |  | 99 | 104 | 105 |  | CN(C(=O)CC[C@@H](C1CCCCC1)N1Cc2cc(Oc3ccccc3)ccc2N=C1N)[C@H]1CC[C@@H](C(=O)O)CC1 [Compound 739, (S)-enantiomer of 4-cis-{[4-(2-Amino-6-phenoxy-4H-quinazolin-3-yl)-4-cyclohexyl-butyryl]-methyl-amino}-cyclohexanecarboxylic acid] |
| 0.038 |  |  |  | 108 | 109 | 121 |  | NC1=Nc2ccc(Oc3ccccc3)cc2CN1[C@@H](CCC(=O)N(Cc1nnn[nH]1)C1CCCCC1)C1CCCCC1 [Compound 787, 4-(2-Amino-6-phenoxy-4H-quinazolin-3-yl)-4S,N-dicyclohexyl-N-(1H-tetrazol-5-ylmethyl)-butyramide] |
| 0.298 |  |  |  | 107 | 108 | 120 |  | CN(C(=O)CC[C@@H](C1CCOCC1)N1Cc2cc(Oc3ccccc3)ccc2N=C1N)[C@H](COCc1ccccc1)C(=O)O [Compound 784, 2-{[4-(2-Amino-6-phenoxy-4H-quinazolin-3-yl)-4S-(tetrahydro-pyran-4-yl)-butyryl]-methyl-amino}-3R-benzyloxy-propionic acid] |
| 0.013 |  |  |  | 125 | 134 | 135 |  | NC1=Nc2ccc(Oc3ccccc3)cc2CN1[C@@H](CCC(=O)N(CCO)C1CCCCC1)C1CCCCC1 [Compound 736, (S)-enantiomer of 4-(2-Amino-6-phenoxy-4H-quinazolin-3-yl)-4,N-dicyclohexyl-N-(2-hydroxy-ethyl)-butyramide] |
